This is an account of results in patent US10723733B2, “Hepatitis B antiviral agents” (Enanta Pharmaceuticals, Inc., priority 2017, dated 2020).

pEC50: −log10 of the molar value.

In the first test the test system is HBV. As to the kind of experiment: HepAD38 antiviral assay: reduction of viral product accumulation (virion DNA by qPCR, HBsAg/HBeAg by ELISA). Type of test: cell-based. The conditions noted are these: Hepatitis B virus, 120 h; HepAD38 cells; 50% reduction of viral product accumulation vs no drug controls; five days after compound addition; class symbols. The protocol: Methods: HepAD38 cells are maintained as previously reported (Ladner et al, Antimicrob. Agents Chemother. 1997, […], 1715). Briefly, cells are passaged upon attaining confluency in DMEM/F12 media in the presence of 10% FBS, Penn/Strep, 250 μg/mL G418, and 1 μg/ml tetracycline. Novel compounds are screened by first washing cells three times with PBS to remove tetracycline, and plating in 96 well plates at 35,000 cells/well. Compounds dissolved in DMSO are then diluted 1:200 into wells containing cells. Five days after compound addition, material is harvested for analysis. For an extended 8 day analysis, cells are plated and treated as described above, but media and compound are refreshed on d2 and d5 post initial treatment.
On harvest day, virion DNA is obtained by lysing with Sidestep Lysis and Stabilization Buffer and then quantified via quantitative real time PCR. Commercially available ELISA kits are used to quantitate the viral proteins HBsAg (Alpco) or HbeAg (US Biological) by following the manufacturer's recommended protocol after diluting samples to match the linear range of their respective assays. Irrespective of readout, compound concentrations that reduce viral product accumulation in the cell lysates or supernatants by 50% relative to no drug controls (EC50) are reported; EC50 ranges are as follows: A<0.1 μM; B 0.1-1 μM; C>1 μM.
A general note: Quantitative PCR measures a nucleic acid by following its amplification.
As a reminder, the pEC50 is the EC50 on a negative log10 scale, so that one unit is a factor of ten. `O=S(=O)(N[C@]1(CO)CC2=C(c3ccn(C(F)F)n3)[C@H](c3ccc(F)cc3Cl)N=C(c3nccs3)N2C1)C1CC1` [Example 70] gave a pEC50 of 6.00 to 7.00. The same measure, in the same setting: the value for `COC(=O)N[C@@]1(CO)CC2=C(c3ccn(C(F)F)n3)[C@H](c3ccc(F)cc3Cl)N=C(c3nccs3)N2C1` [Example 84] was over 7.00; that for `O=C[C@@]1(CC2=C(c3ccn(C(F)F)n3)[C@H](c3ccc(F)cc3Cl)N=C(c3nccs3)N2)COC(=O)N1` [Example 91] was over 7.00. Same read-out and setting: in the case of `COC(=O)[C@]1(CC2=C(c3ccn(C(F)F)n3)[C@H](c3ccc(F)cc3Cl)N=C(c3nccs3)N2)COC(=O)N1` [Example 93] it was over 7.00; in that of `O=C[C@]1(CC2=C(c3ccn(C(F)F)n3)[C@H](c3ccc(F)cc3Cl)N=C(c3nccs3)N2)COC(=O)N1` [Example 95], over 7.00. Same read-out and setting: in the case of `COC(=O)OC[C@]1(CC2=C(c3ccn(C(F)F)n3)[C@H](c3ccc(F)cc3Cl)N=C(c3nccs3)N2)COC(=O)N1` [Example 96] it was 6.00 to 7.00; in that of `CC(=O)OC[C@]1(CC2=C(c3ccn(C(F)F)n3)[C@H](c3ccc(F)cc3Cl)N=C(c3nccs3)N2)COC(=O)N1` [Example 97], 6.00 to 7.00; in that of `O=C1N[C@@](/C=N/Oc2ccccc2)(CC2=C(c3ccn(C(F)F)n3)[C@H](c3ccc(F)cc3Cl)N=C(c3nccs3)N2)CO1` [Example 102], 6.00 to 7.00.

Regarding `OCC(O)(CO)CC1=C(c2ccn(C(F)F)n2)[C@H](c2ccc(F)cc2Cl)N=C(c2nccs2)N1` [Example 111], the pEC50 was over 7.00.

In turn, `[N-]=[N+]=NC[C@@]1(O)CC2=C(c3ccn(C(F)F)n3)[C@H](c3ccc(F)cc3Cl)N=C(c3nccs3)N2C1` [Example 113] showed a pEC50 of 6.00 to 7.00. Still for that read-out and setting: the value for `[N-]=[N+]=NC[C@]1(O)CC2=C(c3ccn(C(F)F)n3)[C@H](c3ccc(F)cc3Cl)N=C(c3nccs3)N2C1` [Example 114] was 6.00 to 7.00; that for `OC[C@@]1(O)CC2=C(c3ccn(C(F)F)n3)[C@H](c3ccc(F)cc3Cl)N=C(c3nccs3)N2C1` [Example 122] was 6.00 to 7.00.

Still in this test, the particulars now being: Hepatitis B virus, 120 h; HepAD38 cells; 50% reduction of viral product accumulation vs no drug controls; five days after compound addition; given as numeric bound.
For `COC(=O)[C@@]1(NS(=O)(=O)C2CC2)CC2=C(c3ccn(C(F)F)n3)[C@H](c3ccc(F)cc3Cl)N=C(c3nccs3)N2C1` [Example 68], the pEC50 was under 6.40. Same read-out and setting: the value for `CS(=O)(=O)N[C@]1(CO)CC2=C(c3ccn(C(F)F)n3)[C@H](c3ccc(F)cc3Cl)N=C(c3nccs3)N2C1` [Example 69] was under 6.40. The same measure, in the same setting: the value for `CNC(=O)OC[C@@]1(NC(=O)OC)CC2=C(c3ccn(C(F)F)n3)[C@H](c3ccc(F)cc3Cl)N=C(c3nccs3)N2C1` [Example 71] was under 6.40; that for `COC(=O)N[C@]1(C(=O)O)CC2=C(c3ccn(C(F)F)n3)[C@H](c3ccc(F)cc3Cl)N=C(c3nccs3)N2C1` [Example 73] was under 6.40. Compound `COC(=O)CNC(=O)[C@@]1(NC(=O)OC)CC2=C(c3ccn(C(F)F)n3)[C@H](c3ccc(F)cc3Cl)N=C(c3nccs3)N2C1` [Example 74] had a pEC50 of under 6.40. `COC(=O)[C@]1(N)CC2=C(c3ccn(C(F)F)n3)[C@H](c3ccc(F)cc3Cl)N=C(c3nccs3)N2C1` [Example 75] showed a pEC50 of under 6.40. The same measure, in the same setting: in the case of `COC(=O)N[C@]1(COC(=O)NCC(=O)O)CC2=C(c3ccn(C(F)F)n3)[C@H](c3ccc(F)cc3Cl)N=C(c3nccs3)N2C1` [Example 77] it was under 6.40. In the case of `COC(=O)CCNC(=O)OC[C@@]1(NC(=O)OC)CC2=C(c3ccn(C(F)F)n3)[C@H](c3ccc(F)cc3Cl)N=C(c3nccs3)N2C1` [Example 78], the pEC50 was under 6.40. Still for that read-out and setting: the value for `COC(=O)N[C@]1(COC(=O)NCCC(=O)O)CC2=C(c3ccn(C(F)F)n3)[C@H](c3ccc(F)cc3Cl)N=C(c3nccs3)N2C1` [Example 79] was under 6.40.

Take `COC(=O)N[C@]1(C(=O)NCCC(=O)OC(C)(C)C)CC2=C(c3ccn(C(F)F)n3)[C@H](c3ccc(F)cc3Cl)N=C(c3nccs3)N2C1` [Example 80]: the pEC50 is under 6.40. On the same count and under the same terms, the value for `COC(=O)N[C@]1(C(=O)NCCC(=O)O)CC2=C(c3ccn(C(F)F)n3)[C@H](c3ccc(F)cc3Cl)N=C(c3nccs3)N2C1` [Example 81] was under 6.40. Same read-out and setting: the value for `COC(=O)N[C@@]1(C(=O)OC)CC2=C(c3ccn(C(F)F)n3)[C@H](c3ccc(F)cc3Cl)N=C(c3nccs3)N2C1` [Example 82] was under 6.40; that for `COC(=O)N[C@]1(COC(C)=O)CC2=C(c3ccn(C(F)F)n3)[C@H](c3ccc(F)cc3Cl)N=C(c3nccs3)N2C1` [Example 83] was under 6.40. On the same count and under the same terms, in the case of `COC[C@@]1(NC(=O)OC)CC2=C(c3ccn(C(F)F)n3)[C@H](c3ccc(F)cc3Cl)N=C(c3nccs3)N2C1` [Example 85] it was under 6.40.

Compound `COC(=O)N[C@@]1(C(C)O)CC2=C(c3ccn(C(F)F)n3)[C@H](c3ccc(F)cc3Cl)N=C(c3nccs3)N2C1` (stereo partly shown) [Example 87] showed a pEC50 of under 6.40. Same read-out and setting: in the case of `COC(=O)[C@@]1(CC2=C(c3ccn(C(F)F)n3)[C@H](c3ccc(F)cc3Cl)N=C(c3nccs3)N2)COC(=O)N1` [Example 89] it was under 6.40.

In the case of `O=C1N[C@](CO)(CC2=C(c3ccn(C(F)F)n3)[C@H](c3ccc(F)cc3Cl)N=C(c3nccs3)N2)CO1` [Example 90], the pEC50 was under 6.40. The same measure, in the same setting: the value for `COC(=O)[C@@](N)(CO)CC1=C(c2ccn(C(F)F)n2)[C@H](c2ccc(F)cc2Cl)N=C(c2nccs2)N1` [Example 92] was under 6.40; that for `CNC(=O)OC[C@]1(CC2=C(c3ccn(C(F)F)n3)[C@H](c3ccc(F)cc3Cl)N=C(c3nccs3)N2)COC(=O)N1` [Example 98] was under 6.40; that for `COC[C@]1(CC2=C(c3ccn(C(F)F)n3)[C@H](c3ccc(F)cc3Cl)N=C(c3nccs3)N2)COC(=O)N1` [Example 99] was under 6.40.

Turning to `C=CCOC[C@]1(CC2=C(c3ccn(C(F)F)n3)[C@H](c3ccc(F)cc3Cl)N=C(c3nccs3)N2)COC(=O)N1` [Example 100], the pEC50 was under 6.40. Same read-out and setting: the value for `CO/N=C/[C@]1(CC2=C(c3ccn(C(F)F)n3)[C@H](c3ccc(F)cc3Cl)N=C(c3nccs3)N2)COC(=O)N1` [Example 101] was under 6.40. On the same count and under the same terms, the value for `O=C1N[C@](CC2=C(c3ccn(C(F)F)n3)[C@H](c3ccc(F)cc3Cl)N=C(c3nccs3)N2)(C(=O)O)CO1` [Example 103] was under 6.40. The same measure, in the same setting: in the case of `O=C1N[C@@](CC2=C(c3ccn(C(F)F)n3)[C@H](c3ccc(F)cc3Cl)N=C(c3nccs3)N2)(C(=O)O)CO1` [Example 104] it was under 6.40. In turn, `COC(=O)/C=C/[C@]1(CC2=C(c3ccn(C(F)F)n3)[C@H](c3ccc(F)cc3Cl)N=C(c3nccs3)N2)COC(=O)N1` [Example 105] showed a pEC50 of under 6.40. The same measure, in the same setting: in the case of `COC(=O)CC[C@]1(CC2=C(c3ccn(C(F)F)n3)[C@H](c3ccc(F)cc3Cl)N=C(c3nccs3)N2)COC(=O)N1` [Example 106] it was under 6.40; in that of `O=C(O)CC[C@]1(CC2=C(c3ccn(C(F)F)n3)[C@H](c3ccc(F)cc3Cl)N=C(c3nccs3)N2)COC(=O)N1` [Example 107], under 6.40. The same measure, in the same setting: the value for `CC(=O)[C@]1(CC2=C(c3ccn(C(F)F)n3)[C@H](c3ccc(F)cc3Cl)N=C(c3nccs3)N2)COC(=O)N1` [Example 108] was under 6.40; that for `CC(C)(O)[C@]1(CC2=C(c3ccn(C(F)F)n3)[C@H](c3ccc(F)cc3Cl)N=C(c3nccs3)N2)COC(=O)N1` [Example 109] was under 6.40; that for `CC(O)[C@]1(CC2=C(c3ccn(C(F)F)n3)[C@H](c3ccc(F)cc3Cl)N=C(c3nccs3)N2)COC(=O)N1` (stereo partly shown) [Example 110] was under 6.40. On to `COC(=O)C(O)(CO)CC1=C(c2ccn(C(F)F)n2)[C@H](c2ccc(F)cc2Cl)N=C(c2nccs2)N1` (stereo partly shown) [Example 112], for which the pEC50 is under 6.40. The same measure, in the same setting: the value for `CS(=O)(=O)NC[C@@]1(O)CC2=C(c3ccn(C(F)F)n3)[C@H](c3ccc(F)cc3Cl)N=C(c3nccs3)N2C1` [Example 115] was under 6.40; that for `CC(=O)NC[C@@]1(O)CC2=C(c3ccn(C(F)F)n3)[C@H](c3ccc(F)cc3Cl)N=C(c3nccs3)N2C1` [Example 116] was under 6.40. The same measure, in the same setting: the value for `COC(=O)NC[C@@]1(O)CC2=C(c3ccn(C(F)F)n3)[C@H](c3ccc(F)cc3Cl)N=C(c3nccs3)N2C1` [Example 117] was under 6.40. Same read-out and setting: in the case of `CS(=O)(=O)NC[C@]1(O)CC2=C(c3ccn(C(F)F)n3)[C@H](c3ccc(F)cc3Cl)N=C(c3nccs3)N2C1` [Example 118] it was under 6.40; in that of `COC(=O)N[C@]1(C(C)O)CC2=C(c3ccn(C(F)F)n3)[C@H](c3ccc(F)cc3Cl)N=C(c3nccs3)N2C1` (stereo partly shown) [Example 119], under 6.40. As for `COC(=O)[C@@]1(O)CC2=C(c3ccn(C(F)F)n3)[C@H](c3ccc(F)cc3Cl)N=C(c3nccs3)N2C1` [Example 120], the pEC50 is under 6.40.

For the compound `COC(=O)[C@]1(O)CC2=C(c3ccn(C(F)F)n3)[C@H](c3ccc(F)cc3Cl)N=C(c3nccs3)N2C1` [Example 121], the pEC50 is under 6.40. The same measure, in the same setting: the value for `OC[C@]1(O)CC2=C(c3ccn(C(F)F)n3)[C@H](c3ccc(F)cc3Cl)N=C(c3nccs3)N2C1` [Example 123] was under 6.40.

As for `CC(C)(C)OC(=O)NC[C@H]1CN(CC2=C(c3ccn(C(F)F)n3)[C@H](c3ccc(F)cc3Cl)N=C(c3nccs3)N2)C(=O)O1` [Example 124], the pEC50 is under 6.40.
